ChEMBL document CHEMBL3045751, “Structural Modification of the 6-Chloropyridyl Moiety in the Imidacloprid, Skeleton: Introduction of a Five-membered Heteroaromatic Ring and the Resulting Insecticidal Activity” (1993)

system: Nephotettix cincticeps; test: Insecticidal activity against Nephotettix cincticeps (green rice leafhopper) in compound treated germinated rice seedlings assessed as mortality measured after 5 days; assay type: functional

Question: Which LC90 does the source give for O=[N+]([O-])/C=C1\NCCN1Cc1ccco1 here?
Answer: 200 ppm

Question: For O=[N+]([O-])/C=C1\NCCN1Cc1cccnc1, which LC90 is on record?
Answer: 8 ppm

Question: Which LC90 does the source give for Cc1ncc(CN2CCN/C2=C\[N+](=O)[O-])s1 here?
Answer: 1.6 ppm

Question: With O=[N+]([O-])/C=C1\NCCN1Cc1csc(Cl)n1 as the molecule, how does the LC90 read?
Answer: 200 ppm

Question: Which LC90 does the source give for O=[N+]([O-])/C=C1\NCCN1Cc1ccccc1 here?
Answer: 200 ppm

Question: O=[N+]([O-])/C=C1\NCCN1Cc1cccs1 was tested. Which LC90 did it give?
Answer: 200 ppm

Question: With O=[N+]([O-])/C=C1\NCCN1Cc1ccc(Br)s1 as the molecule, how does the LC90 read?
Answer: 40 ppm

Question: For O=[N+]([O-])/C=C1\NCCN1Cc1cc(Br)no1, which LC90 is on record?
Answer: 1.6 ppm

Question: O=[N+]([O-])/C=C1\NCCN1Cc1cncs1 was tested. Which LC90 did it give?
Answer: 8 ppm

Question: For O=[N+]([O-])/C=C1\NCCN1Cc1cnc(Cl)s1, which LC90 is on record?
Answer: 0.32 ppm

Question: For O=[N+]([O-])/C=C1\NCCN1Cc1ccc(Cl)nc1, which LC90 is on record?
Answer: 0.32 ppm

Question: Which LC90 does the source give for Cn1cc(CN2CCN/C2=C\[N+](=O)[O-])cn1 here?
Answer: 1.6 ppm

Question: Which LC90 does the source give for O=[N+]([O-])/N=C1\NCCN1Cc1ccc(Cl)nc1 [IMIDACLOPRID] here?
Answer: 0.32 ppm

Question: Which LC90 does the source give for O=[N+]([O-])/C=C1\NCCN1Cc1ccc[nH]1 here?
Answer: 200 ppm

Question: How did the LC90 turn out when Cc1cc(CN2CCN/C2=C\[N+](=O)[O-])on1 was run?
Answer: 1.6 ppm

Question: O=[N+]([O-])/N=C1\NCCN1Cc1cnc(Cl)s1 [IMIDACLOTHIZ] was tested. Which LC90 did it give?
Answer: 0.32 ppm
